Assay results from article PMC2841397 (Xenobiotica; the fate of foreign compounds in biological …, 2010).
“And” between values parts separate entries of the source, which are not always exact repeats. Equal values may be shown once. Read-outs that look alike come from different tables or passages of the source.

Experiments:
cardiomyocytes = details: ref Beigi et al. 2006, Jóźwiak et al. 2007, cited from earlier work; for maximum contractile response: cardiomyocyte model, Woo et al. 2009
isolated rat enterocytes = details: ref Koster et al. 1986, cited from earlier work
isolated rat hepatocytes = details: ref Koster et al. 1986, cited from earlier work
[1] = racemic-Fen 2 mg kg^-1 intravenous, male Wistar rats; ref Koster et al. 1985; cited from earlier work
[2] = rat; ref Koster et al. 1985, 1986; Hildebrandt et al. 1994; cited from earlier work
[3] = Urinary excretion after intravenous administration to rats; assay type: in vivo, rat
[4] = Mean (CV%)
[5] = Urinary excretion after oral administration to rats; assay type: in vivo, rat
[6] = not given; remark: listed apart in the source
[7] = test system: β2-AR coupled GS signaling; details: ref Woo et al. 2009; cited from earlier work
[8] = intravenous 5 mg kg^-1, n=5, mean
[9] = model parameter, iv 5 and oral 25 mg kg^-1

COc1ccc(CC(C)NCC(O)c2cc(O)cc(O)c2)cc1 [(R,R)-MFen, (R,R)-methoxyfenoterol]
maximum contractile response (cardiomyocytes): significant increase

C[C@H](Cc1ccc(O[C@@H]2O[C@H](C(=O)O)[C@@H](O)[C@H](O)[C@H]2O)cc1)NC[C@H](O)c1cc(O)cc(O)c1 [(R,R)-Fen-PG]
observed fraction of (R,R)-Fen-PG formation (isolated rat enterocytes; enterocytes): 0.52 ± 0.01
observed fraction of (R,R)-Fen-PG formation (isolated rat hepatocytes; hepatocytes): 0.28 ± 0.01

CC(Cc1ccc(O)cc1)NCC(O)c1cc(O)cc(O)c1 (stereo not drawn) [Fen, 5-[1-hydroxy-2-[[2-(4-hydroxyphenyl)-1-methylethyl]-amino]-ethyl]-1,3-benzenediol]
Vss [1]: 1.3 L/kg
clearance [1]: 72.8 mL/min/kg
k10 [1]: 0.197 min⁻¹
bioavailability after oral administration [2]: less than 1%

CC(Cc1ccc(O)cc1)NCC(O)c1cc(O)cc(O)c1 [(R,R)-Fen, (R,R)-Fenoterol]
maximum contractile response (cardiomyocytes): significant increase
EC50 in the cardiomyocyte model (cardiomyocytes): reduced
Clint, conversion to (R,R)-Fen-PG (isolated rat enterocytes; isolated rat enterocytes): 0.00079 ± 0.0002 mL/min/kg
Tmax (intravenous 5 mg kg^-1, n=5): 5.0 min
AUC0-inf. [8]: 36200 ng·min/mL
C0 [8]: 2237 ng/mL
Cl [8]: 146 mL/min/kg and 145.7 mL/min/kg
T1/2λz [8]: 1.815 h
VSS [8]: 8.2 L/kg
area under the curve (AUC) (intravenous administration): 119 nmol·min/mL
Dose (%) excreted into urine ([3]; after intravenous (R,R)-Fen 5 mg kg^-1, 0-6 h, individual animals): 2.24% and 7.75%
Dose (%) excreted into urine ([3]; after intravenous (R,R)-Fen 5 mg kg^-1, 6-24 h): 1.70 ± 1.77%
Dose (%) excreted into urine ([3]; after intravenous (R,R)-MFen 5 mg kg^-1, 0-6 h): 1.43 ± 0.21%
Dose (%) excreted into urine ([3]; after intravenous (R,R)-MFen 5 mg kg^-1, 6-24 h): 0.17 ± 0.05%
dose excreted in the cumulative 24-h urine collection ([3]; after intravenous administration of (R,R)-Fen): about 7%
administered dose excreted, 24-h cumulative urinary excretion ([3]; after intravenous administration of (R,R)-MFen): about 2%
CL ([4]; calculated from model parameters, equation (5)): 170 (8%) ml min^-1kg^-1
Vss ([4]; calculated from model parameters, equation (6)): 11.6 (15%) l kg^-1
T1/2λz ([4]; calculated from model parameters, equations (7) and (8)): 96.4 (12%) min
Vc ([4]; model parameter): 3.94 (20%) l kg^-1
ka1 ([4]; model parameter): 0.004 (39%) min^-1
ka2 ([4]; model parameter): 0.167 (79%) min^-1
k10 [4, 9]: 0.043 min^-1 and 0.043 (15%) min^-1
k12 [4, 9]: 0.023 (26%) min^-1
k21 [4, 9]: 0.012 (18%) min^-1
F ([4]; model parameter, systemic bioavailability): 0.473 (25%)
Dose (%) excreted into urine ([5]; after oral (R,R)-Fen 25 mg kg^-1, 0-6 h, one animal): 0.17%
Dose (%) excreted into urine ([5]; after oral (R,R)-Fen 25 mg kg^-1, 6-24 h): 0.16 ± 0.12%
Dose (%) excreted into urine ([5]; after oral (R,R)-MFen 25 mg kg^-1, 0-6 h, individual animals): 0.05% and 0.04%
Dose (%) excreted into urine ([5]; after oral (R,R)-MFen 25 mg kg^-1, 6-24 h): 0.02 ± 0.01%
dose excreted in the cumulative 24-h urine collection ([5]; after oral administration of (R,R)-Fen): less than 1%
administered dose excreted, cumulative urine ([5]; after oral administration of (R,R)-MFen): Trace amounts
Clint, conversion to (R,R)-Fen-PG (isolated rat hepatocytes; isolated rat hepatocytes): 0.00148 ± 0.00032 mL/min/kg
Cmax ([6]; oral 25 mg kg^-1): 6.9 ± 0.3 nM
Tmax ([6]; oral 25 mg kg^-1): 2 h
AUC0-inf. ([6]; oral 25 mg kg^-1, mean): 692 ng·min/mL and 691.7 ng·min/mL
Cmax ([6]; oral 25 mg kg^-1, mean): 2.1 ng/mL
T1/2λz ([6]; oral 25 mg kg^-1, mean): 2.808 h
net exposure (AUC) ([6]; oral administration 25 mg kg^-1): 2.3 nmol·min/mL
β2-AR coupled GS signaling [7]: selectively activates

CC(Cc1ccc(O)cc1)NCC(O)c1cc(O)cc(O)c1 [(S,S)-Fen]
maximum contractile response (cardiomyocytes): no observed effect
